“Also recorded” adds a separate entry of the source.
Experiments:
Type in all cases: cell-based
TLR4 = target: T1, TLR4 (Mus musculus, UniProt Q9QUK6); assay: TNF-α secretion ELISA after LPS in RAW 264.7 cells
T1 construct: endogenous in cells; host or cells: RAW 264.7
T1 sequence (Q9QUK6 26-835): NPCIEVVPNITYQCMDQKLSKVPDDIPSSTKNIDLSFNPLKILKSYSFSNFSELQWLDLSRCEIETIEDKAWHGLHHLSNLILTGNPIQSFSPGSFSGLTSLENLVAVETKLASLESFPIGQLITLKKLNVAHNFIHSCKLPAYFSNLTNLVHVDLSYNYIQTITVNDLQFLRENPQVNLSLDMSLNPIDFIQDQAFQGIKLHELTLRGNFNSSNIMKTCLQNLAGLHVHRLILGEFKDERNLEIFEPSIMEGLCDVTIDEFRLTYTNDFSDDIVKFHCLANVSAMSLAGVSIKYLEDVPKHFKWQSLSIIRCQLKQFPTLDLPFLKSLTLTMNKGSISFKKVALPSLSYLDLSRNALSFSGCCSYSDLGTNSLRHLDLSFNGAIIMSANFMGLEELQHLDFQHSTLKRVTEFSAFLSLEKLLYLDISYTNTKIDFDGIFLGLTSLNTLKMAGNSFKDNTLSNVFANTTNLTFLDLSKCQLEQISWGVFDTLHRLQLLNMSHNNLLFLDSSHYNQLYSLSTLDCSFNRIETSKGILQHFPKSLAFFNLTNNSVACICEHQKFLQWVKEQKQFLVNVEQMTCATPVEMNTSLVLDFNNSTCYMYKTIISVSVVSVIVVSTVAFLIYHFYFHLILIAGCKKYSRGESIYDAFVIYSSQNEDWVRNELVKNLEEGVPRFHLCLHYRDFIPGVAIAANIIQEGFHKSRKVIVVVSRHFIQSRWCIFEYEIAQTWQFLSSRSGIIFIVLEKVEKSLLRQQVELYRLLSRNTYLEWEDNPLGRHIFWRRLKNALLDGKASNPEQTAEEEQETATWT
T1 sequence (Q9JHF9 19-160 partner): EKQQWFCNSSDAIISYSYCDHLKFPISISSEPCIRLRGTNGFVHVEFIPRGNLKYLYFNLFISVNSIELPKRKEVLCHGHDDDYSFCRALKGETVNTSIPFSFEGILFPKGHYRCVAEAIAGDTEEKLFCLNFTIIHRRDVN
Description: (§1) In order to determine the inhibitory activities of the test-ligand, RAW 264.7 cells were pretreated with each candidate compound for 1 hour, then treated with Pam3CSK4 (synthetic triacyl lipopeptide; TLR1/2, Invitrogen), FSL-1 (synthetic diacyl lipoprotein, TLR2/6, 100 ng/ml), lipopolysaccharide (LPS, TLR4, Sigma Aldrich), imiquimod (IMQ, TLR7, Invitrogen), and ODN2395 (type C CpG repeat motif DNA oligo(5′-[…]-3), TLR9, Bioneer) ligand for 4 hours, and treated with poly I:C (I:C repeat motif double-stranded RNA, TLR3, Invitrogen) and TL8-506 (TLR8, Invitrogen) showing delayed reactivity for 24 hours. After activation of TLR, the supernatant was diluted in an appropriate ratio so as to measure within the standard dose range, transferred to a pre-coated 96-well assay plate, and then treated with mouse TNF-alpha secretion level in accordance with the manufacturer's instructions using a mouse-TNF-alpha ELISA-kit (Invitrogen).
(§2) In order to determine the inhibitory activities of SK41, SK50, SK58 and SK64 on various TLR signaling pathways, RAW 264.7 cells were cultured along with each compound and then stimulated with different TLR agonists. The TLR agonists used herein were Pam3CSK4 (TLR1/2), FSL-1 (TLR2/6), LPS (TLR4) and FLA-ST (TLR5) as cell surface TLRs, and poly I:C (TLR3) and TL8-506 (TLR8) as endosomal TLRs.

TLR2/6 = target: T2, TLR2/6 (Mus musculus, UniProt Q9EPW9+Q9QUN7); assay: TNF-α secretion ELISA after FSL-1 in RAW 264.7 cells
T2 construct: endogenous in cells; host or cells: RAW 264.7
T2 sequence (Q9QUN7 25-784): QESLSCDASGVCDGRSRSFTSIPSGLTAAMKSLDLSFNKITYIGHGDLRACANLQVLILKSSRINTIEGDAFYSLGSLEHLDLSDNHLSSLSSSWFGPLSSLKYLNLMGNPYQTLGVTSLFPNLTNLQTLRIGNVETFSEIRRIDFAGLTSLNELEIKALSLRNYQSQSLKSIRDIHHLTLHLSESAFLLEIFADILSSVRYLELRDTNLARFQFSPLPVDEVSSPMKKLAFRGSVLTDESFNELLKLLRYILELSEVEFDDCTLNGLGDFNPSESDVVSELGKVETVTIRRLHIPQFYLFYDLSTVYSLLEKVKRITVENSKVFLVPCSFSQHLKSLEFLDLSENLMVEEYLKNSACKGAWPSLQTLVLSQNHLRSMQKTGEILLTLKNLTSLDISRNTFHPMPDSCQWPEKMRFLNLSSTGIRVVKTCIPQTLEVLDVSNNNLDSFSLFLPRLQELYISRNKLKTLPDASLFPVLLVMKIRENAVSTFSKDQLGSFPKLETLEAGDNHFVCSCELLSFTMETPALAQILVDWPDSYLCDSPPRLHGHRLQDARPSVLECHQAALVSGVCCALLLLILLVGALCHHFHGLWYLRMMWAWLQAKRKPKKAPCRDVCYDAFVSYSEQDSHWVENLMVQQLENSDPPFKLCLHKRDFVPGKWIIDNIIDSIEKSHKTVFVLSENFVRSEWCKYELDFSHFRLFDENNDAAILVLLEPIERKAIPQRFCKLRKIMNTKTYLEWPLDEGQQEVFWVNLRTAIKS
T2 sequence (Q9EPW9 28-795): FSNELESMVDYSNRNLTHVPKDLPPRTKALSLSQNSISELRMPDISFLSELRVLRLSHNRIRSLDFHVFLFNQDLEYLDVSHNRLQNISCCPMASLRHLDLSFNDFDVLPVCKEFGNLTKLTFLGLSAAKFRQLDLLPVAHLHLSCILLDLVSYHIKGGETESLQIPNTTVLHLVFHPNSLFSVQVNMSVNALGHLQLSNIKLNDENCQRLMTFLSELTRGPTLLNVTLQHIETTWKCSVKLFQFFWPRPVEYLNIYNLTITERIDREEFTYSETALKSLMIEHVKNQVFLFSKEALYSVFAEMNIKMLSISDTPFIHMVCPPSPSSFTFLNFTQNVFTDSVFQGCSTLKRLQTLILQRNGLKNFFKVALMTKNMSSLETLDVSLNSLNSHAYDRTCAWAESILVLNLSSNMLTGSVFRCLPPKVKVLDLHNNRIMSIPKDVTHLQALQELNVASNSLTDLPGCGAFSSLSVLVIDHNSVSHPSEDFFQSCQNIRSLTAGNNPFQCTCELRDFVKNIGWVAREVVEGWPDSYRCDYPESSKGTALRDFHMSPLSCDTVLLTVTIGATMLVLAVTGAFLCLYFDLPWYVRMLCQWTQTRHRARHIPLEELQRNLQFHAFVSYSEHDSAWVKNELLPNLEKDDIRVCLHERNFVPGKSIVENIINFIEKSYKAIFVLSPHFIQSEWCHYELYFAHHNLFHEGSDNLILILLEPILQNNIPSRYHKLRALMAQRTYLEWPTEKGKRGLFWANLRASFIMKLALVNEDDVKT
Description: as §1, §2

TLR1/2 = target: T3, TLR1/2 (Mus musculus, UniProt Q9EPQ1+Q9QUN7); assay: TNF-α secretion ELISA after Pam3CSK4 in RAW 264.7 cells
T3 construct: endogenous in cells; host or cells: RAW 264.7
T3 sequence (Q9EPQ1 26-795): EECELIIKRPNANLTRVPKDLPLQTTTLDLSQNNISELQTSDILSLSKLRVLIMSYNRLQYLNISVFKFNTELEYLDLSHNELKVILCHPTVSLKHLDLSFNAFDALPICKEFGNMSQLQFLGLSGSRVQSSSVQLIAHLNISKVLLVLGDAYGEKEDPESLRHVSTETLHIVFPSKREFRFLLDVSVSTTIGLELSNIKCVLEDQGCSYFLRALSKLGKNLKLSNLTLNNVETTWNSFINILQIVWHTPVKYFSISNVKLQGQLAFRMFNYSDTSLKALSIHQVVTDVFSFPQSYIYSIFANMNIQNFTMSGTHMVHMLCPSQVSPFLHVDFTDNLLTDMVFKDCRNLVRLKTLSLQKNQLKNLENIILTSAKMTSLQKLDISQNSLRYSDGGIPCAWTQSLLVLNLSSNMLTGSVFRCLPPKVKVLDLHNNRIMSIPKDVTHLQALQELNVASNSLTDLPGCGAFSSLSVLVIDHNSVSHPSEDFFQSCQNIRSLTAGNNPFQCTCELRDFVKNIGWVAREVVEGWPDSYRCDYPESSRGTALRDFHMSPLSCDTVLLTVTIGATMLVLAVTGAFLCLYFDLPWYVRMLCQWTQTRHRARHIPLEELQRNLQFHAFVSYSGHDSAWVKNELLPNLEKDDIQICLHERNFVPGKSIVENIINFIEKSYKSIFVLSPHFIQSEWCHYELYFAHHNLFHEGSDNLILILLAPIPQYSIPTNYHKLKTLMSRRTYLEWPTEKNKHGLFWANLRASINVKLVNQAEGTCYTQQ
T3 sequence (Q9QUN7 25-784): as the sequence (Q9QUN7 25-784) above
Description: as §1, §2

Structure (SMILES) | inhibitory activity against cell surface TLR4 (TNF-α secretion) (TLR4) | inhibitory activity against cell surface TLR2/6 (TNF-α secretion) (TLR2/6) | inhibitory activity against cell surface TLR1/2 (TNF-α secretion) (TLR1/2)
COc1ccc2c(c1)c1c(N)c3c(nc1n2CCCN(C)C)CCCC3 [SK50, 6-(3-(dimethylamino)propyl)-9-methoxy-2,3,4,6-tetrahydro-1H-indolo[2,3-b]quinolin-11-amine] | did not exhibit a specific inhibitory activity; also recorded: no inhibitory activities | did not exhibit a specific inhibitory activity; also recorded: no inhibitory activities | did not exhibit a specific inhibitory activity; also recorded: no inhibitory activities
COC(=O)c1ccc2c(c1)c1c(N)c3c(nc1n2CCCN(C)C)CCCC3 [SK64, Methyl 11-amino-6-(3-(dimethylamino)propyl)-2,3,4,6-tetrahydro-1H-indolo[2,3-b]quinolin-9-carboxylate] | did not exhibit a specific inhibitory activity; also recorded: no inhibitory activities | did not exhibit a specific inhibitory activity; also recorded: no inhibitory activities | did not exhibit a specific inhibitory activity; also recorded: no inhibitory activities
Cc1ccc2c(c1)c1c(N)c3c(nc1n2CCCN(C)C)CCCC3 [SK58, 6-(3-(dimethylamino)propyl)-9-methyl-2,3,4,6-tetrahydro-1H-indolo[2,3-b]quinolin-11-amine] | did not exhibit a specific inhibitory activity; also recorded: no inhibitory activities | did not exhibit a specific inhibitory activity; also recorded: no inhibitory activities | did not exhibit a specific inhibitory activity; also recorded: no inhibitory activities
Cc1cc2c(N)c3c(nc2n1CCCN(C)C)CCCCCC3 [SK41, 1-(3-(dimethylamino)propyl)-2-methyl-5,6,7,8,9,10-hexahydro-1H-cycloocta[b]pyrrolo[3,2-e]pyridin-4-amine] | did not exhibit a specific inhibitory activity; also recorded: no inhibitory activities | did not exhibit a specific inhibitory activity; also recorded: no inhibitory activities | did not exhibit a specific inhibitory activity; also recorded: no inhibitory activities

Reference: US12516058B2, “Small-molecule compounds for controlling endosomal toll-like receptors and therapeutic agent for autoimmune diseases using same” (priority 2020, dated 2026)
